Our source for the Kd values is ChEMBL document CHEMBL3991601, “The target landscape of clinical kinase drugs” (Science, 2017).

Each structure is given as a SMILES string. Calls of active or inactive are those of the source. Rule as the data show it, for most assays here: actives have a measured Kd and inactives only a lower limit. A value given as a limit tells only on which side of the number the result lay.

Test [1] concerns the target T1, Ferrochelatase, mitochondrial (Homo sapiens, UniProt P22830).
T1 sequence (P22830 whole entry): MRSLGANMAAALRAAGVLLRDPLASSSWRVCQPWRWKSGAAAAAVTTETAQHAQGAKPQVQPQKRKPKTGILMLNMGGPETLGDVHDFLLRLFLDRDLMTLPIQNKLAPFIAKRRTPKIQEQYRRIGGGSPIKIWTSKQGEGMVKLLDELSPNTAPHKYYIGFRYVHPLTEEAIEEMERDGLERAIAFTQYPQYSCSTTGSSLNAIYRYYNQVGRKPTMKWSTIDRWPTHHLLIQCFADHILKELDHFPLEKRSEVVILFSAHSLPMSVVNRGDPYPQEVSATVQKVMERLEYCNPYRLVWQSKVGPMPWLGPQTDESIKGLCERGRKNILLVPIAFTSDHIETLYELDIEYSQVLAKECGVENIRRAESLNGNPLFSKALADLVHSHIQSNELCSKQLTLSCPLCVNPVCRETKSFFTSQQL

Test [2] has as its target Myosin-14 (Homo sapiens, UniProt Q7Z406).
The target in test [3] is T2, Glycine--tRNA ligase (Homo sapiens, UniProt P41250).
T2 sequence (P41250 whole entry): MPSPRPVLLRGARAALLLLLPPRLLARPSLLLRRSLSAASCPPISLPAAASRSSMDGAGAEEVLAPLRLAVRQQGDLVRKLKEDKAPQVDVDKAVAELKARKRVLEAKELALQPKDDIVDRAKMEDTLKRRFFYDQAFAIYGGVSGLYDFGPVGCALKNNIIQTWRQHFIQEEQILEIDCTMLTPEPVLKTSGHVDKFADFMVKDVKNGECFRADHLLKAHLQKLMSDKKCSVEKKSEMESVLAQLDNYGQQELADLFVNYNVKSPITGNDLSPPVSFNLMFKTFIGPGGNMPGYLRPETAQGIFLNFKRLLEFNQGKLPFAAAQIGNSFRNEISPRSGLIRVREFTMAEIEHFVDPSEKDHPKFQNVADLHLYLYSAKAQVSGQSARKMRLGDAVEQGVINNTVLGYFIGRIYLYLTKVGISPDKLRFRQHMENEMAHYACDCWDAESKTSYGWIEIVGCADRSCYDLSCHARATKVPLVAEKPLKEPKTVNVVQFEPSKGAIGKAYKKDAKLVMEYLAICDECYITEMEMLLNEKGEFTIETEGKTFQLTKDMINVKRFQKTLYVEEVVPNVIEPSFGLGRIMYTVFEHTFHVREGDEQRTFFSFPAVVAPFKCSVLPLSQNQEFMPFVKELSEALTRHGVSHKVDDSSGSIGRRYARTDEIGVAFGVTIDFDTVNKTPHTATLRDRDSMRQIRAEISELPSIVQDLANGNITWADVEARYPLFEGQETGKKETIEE

Test [4] has as its target Calcium/calmodulin-dependent protein kinase type II subunit gamma (Homo sapiens, UniProt Q13555).
For test [5], the target named is T3, Mitogen-activated protein kinase kinase kinase 6 (Homo sapiens, UniProt O95382).
T3 sequence (O95382 whole entry): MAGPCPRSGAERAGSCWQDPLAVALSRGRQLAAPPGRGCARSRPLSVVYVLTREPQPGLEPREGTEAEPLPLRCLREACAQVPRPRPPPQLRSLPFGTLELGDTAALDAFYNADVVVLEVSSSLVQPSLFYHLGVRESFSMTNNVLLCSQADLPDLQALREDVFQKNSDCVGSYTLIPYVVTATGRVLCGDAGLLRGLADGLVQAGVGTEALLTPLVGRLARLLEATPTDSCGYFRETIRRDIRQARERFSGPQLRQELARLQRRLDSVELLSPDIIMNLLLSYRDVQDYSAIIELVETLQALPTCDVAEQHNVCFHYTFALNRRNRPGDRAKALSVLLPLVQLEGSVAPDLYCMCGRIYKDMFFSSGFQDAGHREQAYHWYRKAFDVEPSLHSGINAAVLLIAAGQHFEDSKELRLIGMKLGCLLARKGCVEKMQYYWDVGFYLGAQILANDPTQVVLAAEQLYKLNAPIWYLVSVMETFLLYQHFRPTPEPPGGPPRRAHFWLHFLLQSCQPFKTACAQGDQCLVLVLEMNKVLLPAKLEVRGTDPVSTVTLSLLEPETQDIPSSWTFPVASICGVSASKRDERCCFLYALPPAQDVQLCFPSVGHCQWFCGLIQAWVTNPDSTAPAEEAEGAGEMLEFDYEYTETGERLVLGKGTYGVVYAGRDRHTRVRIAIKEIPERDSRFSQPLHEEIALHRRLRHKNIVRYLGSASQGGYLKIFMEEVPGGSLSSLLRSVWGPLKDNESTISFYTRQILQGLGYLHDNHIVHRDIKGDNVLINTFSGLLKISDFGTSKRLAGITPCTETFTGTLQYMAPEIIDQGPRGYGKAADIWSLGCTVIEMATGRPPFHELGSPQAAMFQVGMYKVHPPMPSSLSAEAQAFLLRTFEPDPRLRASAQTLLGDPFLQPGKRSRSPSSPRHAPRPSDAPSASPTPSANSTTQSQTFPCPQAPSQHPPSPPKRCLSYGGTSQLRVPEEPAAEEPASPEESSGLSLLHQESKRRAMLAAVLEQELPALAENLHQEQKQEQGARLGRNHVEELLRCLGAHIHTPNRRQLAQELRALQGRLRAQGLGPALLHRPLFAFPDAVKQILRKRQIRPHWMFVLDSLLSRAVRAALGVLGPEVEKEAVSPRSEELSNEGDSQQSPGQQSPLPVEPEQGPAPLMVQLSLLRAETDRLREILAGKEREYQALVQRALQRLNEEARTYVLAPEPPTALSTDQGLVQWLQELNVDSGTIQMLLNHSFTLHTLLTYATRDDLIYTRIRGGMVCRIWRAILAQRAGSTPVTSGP

In test [6] the target is TRAF2 and NCK-interacting protein kinase (Homo sapiens, UniProt Q9UKE5).
For test [7], the target named is Mitogen-activated protein kinase kinase kinase 20 (Homo sapiens, UniProt Q9NYL2).
In test [8] the target is Serine/threonine-protein kinase/endoribonuclease IRE1 (Homo sapiens, UniProt O75460).
Also: in the data inactive means no Kd found up to 30 µM.

Mitogen-activated protein kinase kinase kinase 20, sequence (Q9NYL2 whole entry): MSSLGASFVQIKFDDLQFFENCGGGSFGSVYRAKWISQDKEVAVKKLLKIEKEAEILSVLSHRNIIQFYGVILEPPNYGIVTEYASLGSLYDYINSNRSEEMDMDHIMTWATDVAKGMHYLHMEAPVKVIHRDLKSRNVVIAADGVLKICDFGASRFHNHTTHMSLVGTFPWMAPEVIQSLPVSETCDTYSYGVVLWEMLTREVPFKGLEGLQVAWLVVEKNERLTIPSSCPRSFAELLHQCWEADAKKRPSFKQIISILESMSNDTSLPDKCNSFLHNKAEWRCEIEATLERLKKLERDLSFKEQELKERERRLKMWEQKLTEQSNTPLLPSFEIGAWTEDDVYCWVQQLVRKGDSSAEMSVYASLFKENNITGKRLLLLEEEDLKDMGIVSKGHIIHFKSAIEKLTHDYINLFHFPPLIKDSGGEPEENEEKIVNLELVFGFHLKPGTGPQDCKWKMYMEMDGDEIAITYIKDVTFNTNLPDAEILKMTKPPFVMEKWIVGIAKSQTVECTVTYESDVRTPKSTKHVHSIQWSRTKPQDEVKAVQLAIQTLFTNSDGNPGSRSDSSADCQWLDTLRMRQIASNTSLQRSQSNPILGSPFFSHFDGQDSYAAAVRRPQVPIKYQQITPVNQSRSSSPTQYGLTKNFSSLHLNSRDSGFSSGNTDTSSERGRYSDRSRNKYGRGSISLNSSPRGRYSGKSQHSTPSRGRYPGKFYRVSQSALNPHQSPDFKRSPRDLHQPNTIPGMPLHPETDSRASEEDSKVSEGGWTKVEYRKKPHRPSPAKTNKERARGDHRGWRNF
Serine/threonine-protein kinase/endoribonuclease IRE1, sequence (O75460 whole entry): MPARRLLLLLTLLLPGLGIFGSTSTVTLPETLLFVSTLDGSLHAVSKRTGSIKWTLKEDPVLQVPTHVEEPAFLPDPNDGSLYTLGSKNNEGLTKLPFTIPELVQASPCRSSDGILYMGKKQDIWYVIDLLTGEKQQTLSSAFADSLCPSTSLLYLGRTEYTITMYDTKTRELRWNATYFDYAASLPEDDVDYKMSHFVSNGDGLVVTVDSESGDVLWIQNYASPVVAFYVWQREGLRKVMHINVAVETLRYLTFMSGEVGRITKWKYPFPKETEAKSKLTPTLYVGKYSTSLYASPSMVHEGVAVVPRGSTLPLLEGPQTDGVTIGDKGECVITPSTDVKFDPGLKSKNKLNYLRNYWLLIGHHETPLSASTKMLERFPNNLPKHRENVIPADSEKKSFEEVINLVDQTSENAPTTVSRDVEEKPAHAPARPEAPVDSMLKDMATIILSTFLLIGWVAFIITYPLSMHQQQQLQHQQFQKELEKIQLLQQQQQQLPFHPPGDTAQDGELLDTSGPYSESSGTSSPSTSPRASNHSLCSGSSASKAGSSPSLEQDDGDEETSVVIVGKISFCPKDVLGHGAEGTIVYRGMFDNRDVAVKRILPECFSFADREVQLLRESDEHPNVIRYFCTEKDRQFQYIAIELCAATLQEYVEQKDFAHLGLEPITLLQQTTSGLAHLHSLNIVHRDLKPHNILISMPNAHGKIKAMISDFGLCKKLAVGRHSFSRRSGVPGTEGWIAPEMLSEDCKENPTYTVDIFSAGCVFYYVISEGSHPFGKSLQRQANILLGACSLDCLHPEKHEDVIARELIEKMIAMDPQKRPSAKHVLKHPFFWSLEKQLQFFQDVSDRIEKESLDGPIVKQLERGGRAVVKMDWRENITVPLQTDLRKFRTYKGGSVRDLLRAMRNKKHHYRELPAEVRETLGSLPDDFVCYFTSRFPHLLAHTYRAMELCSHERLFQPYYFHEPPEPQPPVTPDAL
TRAF2 and NCK-interacting protein kinase, sequence (Q9UKE5 whole entry): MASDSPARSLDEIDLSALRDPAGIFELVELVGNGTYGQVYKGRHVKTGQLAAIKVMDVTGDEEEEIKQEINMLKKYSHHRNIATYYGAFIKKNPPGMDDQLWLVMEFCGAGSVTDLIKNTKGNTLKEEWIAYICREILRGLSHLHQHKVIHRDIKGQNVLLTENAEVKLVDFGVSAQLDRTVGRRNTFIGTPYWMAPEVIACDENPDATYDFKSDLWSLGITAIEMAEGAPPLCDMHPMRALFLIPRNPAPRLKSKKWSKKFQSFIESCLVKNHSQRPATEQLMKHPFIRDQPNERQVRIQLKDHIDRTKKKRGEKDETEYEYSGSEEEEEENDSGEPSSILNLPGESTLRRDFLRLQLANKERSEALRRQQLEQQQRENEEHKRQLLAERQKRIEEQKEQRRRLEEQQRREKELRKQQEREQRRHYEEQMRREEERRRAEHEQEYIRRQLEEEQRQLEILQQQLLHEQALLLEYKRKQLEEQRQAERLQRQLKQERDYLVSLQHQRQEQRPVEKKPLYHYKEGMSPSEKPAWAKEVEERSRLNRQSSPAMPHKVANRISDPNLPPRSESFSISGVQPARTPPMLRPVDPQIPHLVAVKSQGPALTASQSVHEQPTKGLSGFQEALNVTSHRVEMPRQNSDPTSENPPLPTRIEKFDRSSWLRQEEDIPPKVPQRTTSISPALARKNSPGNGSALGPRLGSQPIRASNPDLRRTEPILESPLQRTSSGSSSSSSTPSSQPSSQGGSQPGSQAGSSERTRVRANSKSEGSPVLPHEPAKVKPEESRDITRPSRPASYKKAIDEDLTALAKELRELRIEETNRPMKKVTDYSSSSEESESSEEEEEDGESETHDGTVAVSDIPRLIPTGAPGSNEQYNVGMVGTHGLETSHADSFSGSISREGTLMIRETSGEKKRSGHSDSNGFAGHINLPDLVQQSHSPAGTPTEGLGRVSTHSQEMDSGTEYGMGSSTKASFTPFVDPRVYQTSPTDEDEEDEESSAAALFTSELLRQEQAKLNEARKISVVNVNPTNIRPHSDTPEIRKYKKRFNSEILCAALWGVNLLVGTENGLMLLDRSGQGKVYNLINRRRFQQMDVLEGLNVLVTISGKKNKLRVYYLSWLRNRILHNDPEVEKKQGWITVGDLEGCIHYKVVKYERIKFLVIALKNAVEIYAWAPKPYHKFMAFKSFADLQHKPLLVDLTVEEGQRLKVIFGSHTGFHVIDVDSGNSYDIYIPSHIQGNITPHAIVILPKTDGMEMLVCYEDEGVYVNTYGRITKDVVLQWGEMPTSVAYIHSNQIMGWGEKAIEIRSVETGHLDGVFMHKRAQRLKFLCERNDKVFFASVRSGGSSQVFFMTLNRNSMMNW
Myosin-14, sequence (Q7Z406 whole entry): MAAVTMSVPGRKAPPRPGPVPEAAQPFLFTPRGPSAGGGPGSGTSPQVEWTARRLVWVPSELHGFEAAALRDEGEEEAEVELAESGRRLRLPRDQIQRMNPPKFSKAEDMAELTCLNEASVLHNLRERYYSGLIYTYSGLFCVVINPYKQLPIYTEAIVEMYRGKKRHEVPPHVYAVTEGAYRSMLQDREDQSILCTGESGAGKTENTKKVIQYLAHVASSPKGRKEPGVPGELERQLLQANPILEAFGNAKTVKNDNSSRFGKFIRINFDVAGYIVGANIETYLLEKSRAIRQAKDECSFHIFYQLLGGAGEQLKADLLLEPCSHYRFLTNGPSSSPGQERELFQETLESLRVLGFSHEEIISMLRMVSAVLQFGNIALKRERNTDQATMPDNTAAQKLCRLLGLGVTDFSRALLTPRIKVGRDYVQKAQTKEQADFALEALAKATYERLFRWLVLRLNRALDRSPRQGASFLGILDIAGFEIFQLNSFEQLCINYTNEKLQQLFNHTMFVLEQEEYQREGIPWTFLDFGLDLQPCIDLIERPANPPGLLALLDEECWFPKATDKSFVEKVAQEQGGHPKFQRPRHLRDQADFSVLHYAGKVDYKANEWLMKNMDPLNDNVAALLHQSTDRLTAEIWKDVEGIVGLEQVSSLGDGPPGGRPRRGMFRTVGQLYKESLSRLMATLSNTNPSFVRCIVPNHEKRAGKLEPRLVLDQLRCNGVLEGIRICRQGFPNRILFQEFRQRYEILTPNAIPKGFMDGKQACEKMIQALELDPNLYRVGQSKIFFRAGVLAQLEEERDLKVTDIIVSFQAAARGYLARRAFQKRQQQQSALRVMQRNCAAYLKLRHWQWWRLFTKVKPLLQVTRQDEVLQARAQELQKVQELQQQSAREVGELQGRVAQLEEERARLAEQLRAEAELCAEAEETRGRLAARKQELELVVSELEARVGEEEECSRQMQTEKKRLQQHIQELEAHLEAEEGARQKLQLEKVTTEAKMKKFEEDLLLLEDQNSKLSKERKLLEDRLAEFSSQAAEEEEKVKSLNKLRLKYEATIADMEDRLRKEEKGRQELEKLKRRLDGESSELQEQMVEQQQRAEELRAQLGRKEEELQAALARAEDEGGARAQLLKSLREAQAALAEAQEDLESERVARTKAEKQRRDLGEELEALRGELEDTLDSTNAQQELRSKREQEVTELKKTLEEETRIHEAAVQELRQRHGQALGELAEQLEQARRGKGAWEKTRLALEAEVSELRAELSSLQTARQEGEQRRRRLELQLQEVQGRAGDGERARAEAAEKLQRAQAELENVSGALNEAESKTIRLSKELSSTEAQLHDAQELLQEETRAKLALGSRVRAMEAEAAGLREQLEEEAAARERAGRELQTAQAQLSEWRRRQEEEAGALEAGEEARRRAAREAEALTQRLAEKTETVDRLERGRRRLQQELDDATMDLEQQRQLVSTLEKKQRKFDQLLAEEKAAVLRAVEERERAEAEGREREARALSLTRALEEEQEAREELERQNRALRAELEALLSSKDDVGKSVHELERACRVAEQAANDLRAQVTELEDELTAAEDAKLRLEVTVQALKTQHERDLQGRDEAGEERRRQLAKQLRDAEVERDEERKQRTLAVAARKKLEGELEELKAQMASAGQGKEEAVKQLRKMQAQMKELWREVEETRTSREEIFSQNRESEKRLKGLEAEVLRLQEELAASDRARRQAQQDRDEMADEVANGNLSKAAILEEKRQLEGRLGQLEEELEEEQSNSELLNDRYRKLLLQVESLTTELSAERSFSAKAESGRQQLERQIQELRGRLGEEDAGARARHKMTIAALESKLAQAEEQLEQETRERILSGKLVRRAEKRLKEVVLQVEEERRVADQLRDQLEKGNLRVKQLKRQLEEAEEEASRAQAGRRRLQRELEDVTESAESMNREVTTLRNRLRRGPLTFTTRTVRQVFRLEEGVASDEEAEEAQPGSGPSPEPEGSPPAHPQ

Take `CC[C@@H]1C(=O)N(C)c2cnc(Nc3ccc(C(=O)N[C@H]4CC[C@H](N5CCN(CC6CC6)CC5)CC4)cc3OC)nc2N1C(C)C` [VOLASERTIB]: the Kd in test [1], in test [2], in test [3], in test [4], in test [5] and in test [6] was > 30 µM (inactive) each time. Moreover, the Kd in test [7] and in test [8] was > 30 µM (inactive) in each case.

Regarding `Cn1cc(-c2ccc(F)c(C(F)(F)F)c2)nc1C1CCN(c2ncnc3[nH]ncc23)CC1` [LY-2584702], the Kd in test [1], in test [2], in test [3], in test [4], in test [5] and in test [6] was > 30 µM (inactive) in each case. Further, the Kd in test [7] and in test [8] was > 30 µM (inactive) each time.

For the molecule `CCn1c(=O)c(-c2cc[nH]n2)cc2c(C)nc(N)nc21` [VOXTALISIB], the Kd in test [1], in test [2], in test [3], in test [4], in test [5] and in test [6] was > 30 µM (inactive) in each case. The Kd in test [7] and in test [8] was > 30 µM (inactive) in each case.

With `OCCn1cc(-c2cnc3nnn(Cc4ccc5ncccc5c4)c3n2)cn1` [PF-04217903], the Kd in test [1], in test [2], in test [3], in test [4], in test [5] and in test [6] was > 30 µM (inactive) each time. Further, the Kd in test [7] and in test [8] was > 30 µM (inactive) in each case.

As for `CO[C@H]1C[C@@H]2CC[C@@H](C)[C@@](O)(O2)C(=O)C(=O)N2CCCC[C@H]2C(=O)O[C@H]([C@H](C)C[C@@H]2CC[C@@H](OCCO)[C@H](OC)C2)CC(=O)[C@H](C)/C=C(\C)[C@@H](O)[C@@H](OC)C(=O)[C@H](C)C[C@H](C)/C=C/C=C/C=C/1C` [EVEROLIMUS], the Kd in test [1], in test [2], in test [3], in test [4], in test [5] and in test [6] was > 30 µM (inactive) in each case. The Kd in test [7] and in test [8] was > 30 µM (inactive) in each case.

In the case of `CCCS(=O)(=O)Nc1ccc(F)c(C(=O)c2c[nH]c3ncc(-c4ccc(Cl)cc4)cc23)c1F` [VEMURAFENIB], the Kd in test [1] is 1.42 µM (active); in test [2], > 30 µM (inactive); in test [3], > 30 µM (inactive); in test [4], > 30 µM (inactive); in test [5], > 30 µM (inactive); in test [6], > 30 µM (inactive). In addition, the Kd in test [7] is 0.316 µM (active); in test [8] it was > 30 µM (inactive).

With `O=C(Nc1ccc(-c2ccnc(Nc3ccc(N4CCOCC4)cc3)n2)cc1)C1CCCN1` (configuration not stated) [XL-019], the Kd in test [1], in test [2], in test [3], in test [4], in test [5] and in test [6] was > 30 µM (inactive) throughout. In addition, the Kd in test [7] and in test [8] was > 30 µM (inactive) throughout.

On to `Cn1ncc(Cl)c1-c1cc(C(=O)N[C@H](CN)Cc2cccc(F)c2)sc1Cl` [AFURESERTIB], for which the Kd in test [1], in test [2], in test [3], in test [4], in test [5] and in test [6] was > 30 µM (inactive) throughout. Also, the Kd in test [7] and in test [8] was > 30 µM (inactive) each time.

As to `CNC(=O)CN1CCC(Oc2cc3c(Nc4cccc(Cl)c4F)ncnc3cc2OC)CC1` [SAPITINIB], the Kd in test [1], in test [2], in test [3], in test [4], in test [5] and in test [6] was > 30 µM (inactive) throughout. Further, the Kd in test [7] and in test [8] was > 30 µM (inactive) throughout.

Consider `CC(=O)Nc1cccc(-n2c(=O)n(C3CC3)c(=O)c3c(Nc4ccc(I)cc4F)n(C)c(=O)c(C)c32)c1` [TRAMETINIB], for which the Kd in test [1], in test [2], in test [3], in test [4], in test [5] and in test [6] was > 30 µM (inactive) each time. For the same molecule, the Kd in test [7] and in test [8] was > 30 µM (inactive) in each case.

As for `CNC(=O)c1ccc(-c2cnc3ncc(Cc4ccc5ncccc5c4)n3n2)cc1F` [CAPMATINIB], the Kd in test [1], in test [2], in test [3], in test [4], in test [5] and in test [6] was > 30 µM (inactive) throughout. For the same molecule, the Kd in test [7] and in test [8] was > 30 µM (inactive) each time.

As to `CC[C@H](Nc1ncnc2[nH]cnc12)c1nc2cccc(F)c2c(=O)n1-c1ccccc1` [IDELALISIB], the Kd in test [1], in test [3], in test [4], in test [5], in test [6] and in test [7] was > 30 µM (inactive) throughout. In addition, the Kd in test [8] is > 30 µM (inactive).

`Cc1cc(-c2cc(O)ccc2Cl)cc2nnc(Nc3ccc(OCCN4CCCC4)cc3)nc12`: the Kd in test [1], in test [3], in test [4], in test [5], in test [6] and in test [7] was > 30 µM (inactive) throughout. Moreover, in test [8], the Kd was > 30 µM (inactive).

By Kd is commonly meant the concentration at which binding is half-saturated.
